Measurements published in patent US5789434A, “Derivatives of substituted 4-biarylbutyric acid as matrix metalloprotease inhibitors” (priority 1995, dated 1998).

What was measured:
Assay type in all cases: biochemical
MMP-3 = target: T1, MMP-3 (Homo sapiens, UniProt P08254); test: Automated MMP Profiling Assay, MMP-3 fluorogenic; settings: for IC50: 96-well automated, P218
T1 construct: Truncated Prostromelysin-257 was expressed in a soluble form in E.coli; made in house; host or cells: E. coli
Source text: This assay with each invention compound was run with the three enzymes MMP-3, MMP-9 and MMP-2 in parallel as adapted for a 96-well microtitre plate using a Hamilton A® workstation.

MMP-9 = target: T2, MMP-9 (Homo sapiens, UniProt P14780); test: Automated MMP Profiling Assay, MMP-9 fluorogenic; settings: for IC50: 96-well automated, P218
T2 construct: from tissue; host or cells: human polymorphonuclear leukocytes (PMN) from whole blood (New York Blood Center), PMA-stimulated supernatant

MMP-2 = target: T3, MMP-2 (Homo sapiens, UniProt P08253); test: Automated MMP Profiling Assay, MMP-2 fluorogenic; settings: for IC50: 96-well automated, P218, read-out: MMP-2 Fluorogenic IC50 (profiling)
T3 sequence (P08253 110-660): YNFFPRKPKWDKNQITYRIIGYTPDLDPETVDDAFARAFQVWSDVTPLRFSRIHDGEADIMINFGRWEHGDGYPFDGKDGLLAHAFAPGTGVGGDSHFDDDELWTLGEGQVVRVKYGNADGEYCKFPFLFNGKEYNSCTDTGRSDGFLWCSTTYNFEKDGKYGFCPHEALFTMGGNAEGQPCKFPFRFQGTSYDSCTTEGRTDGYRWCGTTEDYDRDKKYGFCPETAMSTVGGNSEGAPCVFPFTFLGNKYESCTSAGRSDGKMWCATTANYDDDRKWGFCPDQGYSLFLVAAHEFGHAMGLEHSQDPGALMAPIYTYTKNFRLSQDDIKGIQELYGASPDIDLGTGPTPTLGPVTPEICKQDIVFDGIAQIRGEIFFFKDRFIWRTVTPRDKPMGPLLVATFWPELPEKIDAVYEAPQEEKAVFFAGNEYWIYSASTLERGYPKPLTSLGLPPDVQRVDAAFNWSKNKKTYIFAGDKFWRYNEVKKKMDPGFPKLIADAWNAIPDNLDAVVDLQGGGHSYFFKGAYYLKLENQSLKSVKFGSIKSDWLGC

T1 sequence (P08254 100-274 limits assumed): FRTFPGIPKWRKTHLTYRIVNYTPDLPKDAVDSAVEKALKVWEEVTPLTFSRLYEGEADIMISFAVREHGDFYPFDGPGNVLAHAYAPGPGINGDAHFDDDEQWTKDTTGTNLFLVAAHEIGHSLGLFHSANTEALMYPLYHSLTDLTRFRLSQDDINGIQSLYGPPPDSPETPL
T2 sequence (P14780 107-707 limits assumed): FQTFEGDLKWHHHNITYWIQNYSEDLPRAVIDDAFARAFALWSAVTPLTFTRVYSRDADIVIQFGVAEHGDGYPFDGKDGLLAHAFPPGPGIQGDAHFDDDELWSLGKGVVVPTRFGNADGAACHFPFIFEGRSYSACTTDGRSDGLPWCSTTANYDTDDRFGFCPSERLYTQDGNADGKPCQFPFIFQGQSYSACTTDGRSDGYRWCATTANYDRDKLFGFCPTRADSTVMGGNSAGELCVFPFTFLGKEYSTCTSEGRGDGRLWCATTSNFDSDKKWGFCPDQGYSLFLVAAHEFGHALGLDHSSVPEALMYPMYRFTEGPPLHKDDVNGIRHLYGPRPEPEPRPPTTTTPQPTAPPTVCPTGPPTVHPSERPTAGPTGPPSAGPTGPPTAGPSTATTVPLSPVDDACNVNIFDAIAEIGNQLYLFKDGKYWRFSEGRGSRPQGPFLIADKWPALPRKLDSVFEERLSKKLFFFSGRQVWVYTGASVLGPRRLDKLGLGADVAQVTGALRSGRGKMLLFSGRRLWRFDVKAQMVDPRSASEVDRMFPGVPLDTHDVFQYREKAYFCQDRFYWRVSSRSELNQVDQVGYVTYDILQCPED

Structure (SMILES) | IC50 (MMP-3) | IC50 (MMP-9) | IC50 (MMP-2) | inhibition at 5 µM (MMP-9) | inhibition at 5 µM (MMP-3) | inhibition at 5 µM (MMP-2; at 5 μM)
CCCCCOc1ccc(-c2ccc(C(=O)[C@H]3CC[C@@H](Sc4ccccc4)[C@@H]3C(=O)O)cc2)cc1 (single isomer, unassigned) [Example 319, Cyclopentanecarboxylic acid, 2-[[4'-(pentyloxy)[1,1'-biphenyl]-4-yl]carbonyl]-5-(phenylthio)-, (1α,2β,5β)-(+)-] | 30 nM | 197 nM | 4.1 nM | – | – | –
O=C(O)c1ccccc1S[C@H]1CC[C@H](C(=O)c2ccc(-c3ccc(Cl)cc3)cc2)[C@H]1C(=O)O (relative stereo) [Example 301, Benzoic acid, 2-[[2-carboxy-3-[(4'-chloro[1,1'-biphenyl]-4-yl)carbonyl]cyclopentyl]thio]-, [1S-(1α,2α,3β)]-] | 30 nM | 290 nM | 18 nM | – | – | –
CCCCCCOc1ccc(-c2ccc(C(=O)CC(CCc3ccccc3)C(=O)O)cc2)cc1 (stereo not drawn) [Example 159, [1,1'-Biphenyl]-4-butanoic acid, 4'-(hexyloxy)-γ-oxo-α-(2-phenylethyl)-] | 116 nM | > 1250 nM | 42 nM | – | – | –
CN(C)C(=O)c1cccc(SCC(CC(=O)c2ccc(-c3ccc(Cl)cc3)cc2)C(=O)O)c1 (stereo not drawn) [Example 437, [1,1'-Biphenyl]-4-butanoic acid, 4'-chloro-α-[[[3-[(dimethylamino)carbonyl]phenyl]thio]methyl]-γ-oxo-] | 50 nM | 366 nM | 15 nM | – | – | –
O=C(CC(CCc1ccccc1)C(=O)O)c1ccc(-c2ccc(O)cc2)cc1 (stereo not drawn) [Example 155, [1,1'-Biphenyl]-4-butanoic acid, 4'-hydroxy-γ-oxo-α-(2-phenylethyl)-] | 777 nM | > 1250 nM | 50 nM | – | – | –
C=CCOc1ccc(-c2ccc(C(=O)CC(CCCc3ccccc3)C(=O)O)cc2)cc1 (stereo not drawn) [Example 95, [1,1'-Biphenyl]-4-butanoic acid, γ-oxo-α-(3-phenylpropyl)-4'-(2-propenyloxy)-] | 79 nM | 77 nM | 26 nM | – | – | –
CCCOc1ccc(-c2ccc(C(=O)CC(CCc3ccccc3)C(=O)O)cc2)cc1 (stereo not drawn) [Example 157, [1,1'-Biphenyl]-4-butanoic acid, γ-oxo-α-(2-phenylethyl)-4'-propoxy-] | 111 nM | 142 nM | 35 nM | – | – | –
CC(C)(C)CC(=O)N1CC[C@H](C(=O)c2ccc(-c3ccc(Cl)cc3)cc2)[C@H]1C(=O)O [Example 171, L-Proline, 3-[(4'-chloro[1,1'-biphenyl]-4-yl)carbonyl]-1-(3,3-dimethyl-1-oxobutyl)-, trans-] | 663 nM | 3520 nM | 452 nM | – | – | –
O=C(O)[C@H]1[C@H](CSCc2ccccc2)CC[C@@H]1C(=O)c1ccc(-c2ccc(Cl)cc2)cc1 (relative stereo) [Example 372, Cyclopentanecarboxylic acid, 2-[(4'-chloro[1,1'-biphenyl]-4-yl)carbonyl]-5-[[(phenylmethyl)thio]methyl]-, (1α,2β,5β)-] | 39 nM | 65 nM | 22 nM | – | – | –
O=C(O)[C@H]1[C@H](CSc2ccccc2)CC[C@@H]1C(=O)c1ccc(-c2ccc(Cl)cc2)cc1 (relative stereo) [Example 373, Cyclopentanecarboxylic acid, 2-[(4'-chloro[1,1'-biphenyl]-4-yl)carbonyl]-5-[(phenylthio)methyl]-, (1α,2β,5β)-] | 56 nM | 113 nM | 24 nM | – | – | –
O=C(CC(CCN1C(=O)c2ccc(OCc3ccccc3)cc2C1=O)C(=O)O)c1ccc(-c2ccc(Cl)cc2)cc1 (stereo not drawn) [Example 405, 2H-Isoindole-2-butanoic acid, α-[2-(4'-chloro[1,1'-biphenyl]-4-yl)-2-oxoethyl]-1,3-dihydro-1,3-dioxo-5-(phenylmethoxy)-] | 75 nM | 5.8 nM | 80 nM | – | – | –
O=C(CC(CCCc1ccccc1)C(=O)O)c1ccc(-c2ccc(OCc3ccc(F)cc3)cc2)cc1 (stereo not drawn) [Example 107, [1,1'-Biphenyl]-4-butanoic acid, 4'-[(4-fluorophenyl)methoxy]-γ-oxo-α-(3-phenylpropyl)-] | 32 nM | – | 16 nM | 34% | – | –
CC(=O)OC[C@@H]1C[C@@H](C(=O)c2ccc(-c3ccc(Cl)cc3)cc2)[C@H]1C(=O)O (relative stereo) [Example 397, Cyclobutanecarboxylic acid, 2-[(acetyloxy)methyl]-4-[(4'-chloro[1,1'-biphenyl]-4-yl)carbonyl]-, (1α,2β,4α)-] | 3200 nM | – | 750 nM | 40% | – | –
O=C(O)[C@H]1[C@H](CN2C(=O)c3cccc([N+](=O)[O-])c3C2=O)CC[C@@H]1C(=O)c1ccc(-c2ccc(Cl)cc2)cc1 (relative stereo) [Example 385, Cyclopentanecarboxylic acid, 2-[(4'-chloro[1,1'-biphenyl]-4-yl)carbonyl]-5-[(1,3-dihydro-4-nitro-1,3-dioxo-2H-isoindol-2-yl)methyl]-, (1α,2β,5β)-] | 4.22 nM | 1.12 nM | 4.26 nM | – | – | –
Cc1ccc(/C=C/[C@@H]2CC[C@H](C(=O)c3ccc(-c4ccc(Cl)cc4)cc3)[C@H]2C(=O)O)cc1 (relative stereo) [Example 363, Cyclopentanecarboxylic acid, 2-[(4'-chloro[1,1'-biphenyl]-4-yl)carbonyl]-5-[2-(4-methylphenyl)ethenyl]-, [1α,2β,5β(E)]-] | 5000 nM | – | < 5000 nM | 37% | – | –
O=C(CC(CCCc1ccccc1)C(=O)O)c1ccc(-c2cccnc2)cc1 (stereo not drawn) [Example 70, Benzenepentanoic acid, α-[2-oxo-2-[4-(3-pyridinyl)phenyl]ethyl]-] | – | – | 1750 nM | 7% | 44% | –
CCCCOc1ccc(-c2ccc(C(=O)CC(CCc3ccccc3)C(=O)O)cc2)cc1 (stereo not drawn) [Example 160, [1,1'-Biphenyl]-4-butanoic acid, 4'-butoxy-γ-oxo-α-(2-phenylethyl)-] | 147 nM | 1060 nM | 42 nM | – | – | –
O=C(CC(CCN1C(=O)c2cccc(O)c2C1=O)C(=O)O)c1ccc(-c2ccc(Cl)cc2)cc1 (stereo not drawn) [Example 421, 2H-Isoindole-2-butanoic acid, α-[2-(4'chloro[1,1'-biphenyl]-4-yl)-2-oxoethyl]-1,3-dihydro-4-hydroxy-1,3-dioxo-] | 12 nM | 1.7 nM | 0.75 nM | – | – | –
CC(C)(C)c1ccc2c(c1)C(=O)N(CCC(CC(=O)c1ccc(-c3ccc(Cl)cc3)cc1)C(=O)O)C2=O (stereo not drawn) [Example 414, 2H-Isoindole-2-butanoic acid, α-[2-(4'-chloro[1,1'-biphenyl]-4-yl)-2-oxoethyl]-5-(1,1-dimethylethyl)-1,3-dihydro-1,3-dioxo-] | 37 nM | 15 nM | 79 nM | – | – | –
COCCOCOC[C@@H]1CC[C@H](C(=O)c2ccc(-c3ccc(Cl)cc3)cc2)[C@H]1C(=O)O (relative stereo) [Example 371, Cyclopentanecarboxylic acid, 2-[(4'-chloro[1,1'-biphenyl]-4-yl)carbonyl]-5-[[(2-methoxyethoxy)methoxy]methyl]-, (1α,2β,5β)-] | 10 nM | 26 nM | 9.1 nM | – | – | –
CC(C)COc1ccc(-c2ccc(C(=O)CC(CCCc3ccccc3)C(=O)O)cc2)cc1 (stereo not drawn) [Example 94, [1,1'-Biphenyl]-4-butanoic acid, 4'-(2-methylpropoxy)-γ-oxo-α-(3-phenylpropyl)-] | 224 nM | 1850 nM | 155 nM | – | – | –
O=C(O)[C@H]1[C@H](CN2C(=O)c3cc(Cl)c(Cl)cc3C2=O)CC[C@@H]1C(=O)c1ccc(-c2ccc(Cl)cc2)cc1 (relative stereo) [Example 391, Cyclopentanecarboxylic acid, 2-[(4'-chloro[1,1'-biphenyl]-4-yl)carbonyl]-5-[(5,6-dichloro-1,3-dihydro-1,3-dioxo-2H-isoindol-2-yl)methyl]-, (1α,2β,5β)-] | 19 nM | 4.2 nM | 14 nM | – | – | –
CC(C)(C)OC(=O)Nc1ccc(-c2ccc(C(=O)CC(CCc3ccccc3)C(=O)O)cc2)cc1 (stereo not drawn) [Example 138, [1,1'-Biphenyl]-4-butanoic acid, 4'-[[(1,1-dimethylethoxy)carbonyl]amino]-γ-oxo-α-(2-phenylethyl)-] | 905 nM | – | 665 nM | 0% | – | –
O=C(CC(CCCc1ccccc1)C(=O)O)c1ccc(-c2ccc(C(=O)O)o2)cc1 (stereo not drawn) [Example 69, 2-Furancarboxylic acid, 5-[4-(3-carboxy-1-oxo-6-phenylhexyl)phenyl]-] | – | – | – | 0% | 0% | 0%
COc1ccc(COc2ccc(-c3ccc(C(=O)CC(CCCc4ccccc4)C(=O)O)cc3)cc2)cc1 (stereo not drawn) [Example 105, [1,1'-Biphenyl]-4-butanoic acid, 4'-[(4-methoxyphenyl)methoxy]-γ-oxo-α-(3-phenylpropyl)-] | 33 nM | – | 14 nM | 37% | – | –
